# In US20250340569A1, “INHIBITORS OF KIF18A AND USES THEREOF” (Insilico Medicine IP Limited, priority 2023, published 2025):
# Columns and labels:
# Kif18A = biological target: T1, Kif18A (Homo sapiens, UniProt Q8NI77); assay: KIF18A assay (ADP Glo); conditions: biochemical assay, ADP Glo luminescence
# T1 sequence (Q8NI77 1-898): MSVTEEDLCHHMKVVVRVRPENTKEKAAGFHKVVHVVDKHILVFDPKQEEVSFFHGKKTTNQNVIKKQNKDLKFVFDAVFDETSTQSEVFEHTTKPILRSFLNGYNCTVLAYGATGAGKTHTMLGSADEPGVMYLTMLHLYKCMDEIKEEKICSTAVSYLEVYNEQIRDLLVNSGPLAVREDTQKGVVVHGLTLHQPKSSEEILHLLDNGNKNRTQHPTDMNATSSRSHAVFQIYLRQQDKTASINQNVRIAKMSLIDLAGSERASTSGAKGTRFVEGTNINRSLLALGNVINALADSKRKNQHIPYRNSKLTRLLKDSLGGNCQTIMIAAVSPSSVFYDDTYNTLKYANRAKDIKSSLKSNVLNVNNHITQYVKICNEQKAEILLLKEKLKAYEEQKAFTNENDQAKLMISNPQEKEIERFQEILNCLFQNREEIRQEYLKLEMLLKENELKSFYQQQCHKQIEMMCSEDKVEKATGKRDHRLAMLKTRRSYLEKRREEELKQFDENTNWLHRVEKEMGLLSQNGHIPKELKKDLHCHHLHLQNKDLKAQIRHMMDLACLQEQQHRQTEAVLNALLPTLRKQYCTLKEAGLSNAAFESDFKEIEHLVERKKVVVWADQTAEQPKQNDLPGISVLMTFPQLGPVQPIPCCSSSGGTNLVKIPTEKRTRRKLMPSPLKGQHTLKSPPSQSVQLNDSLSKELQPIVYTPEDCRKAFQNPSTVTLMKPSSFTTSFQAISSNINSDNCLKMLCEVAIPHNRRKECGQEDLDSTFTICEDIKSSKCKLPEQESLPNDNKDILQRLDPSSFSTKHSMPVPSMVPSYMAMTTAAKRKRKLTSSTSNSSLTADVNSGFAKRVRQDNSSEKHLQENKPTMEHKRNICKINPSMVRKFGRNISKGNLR
# Description: The KIF18A assay was performed as follows:
# 1.1. Prepared 1× Kinase Buffer
# • a) Added 40 μL test compound to 384-well dilution plate • b) Diluted compound 1:3 in succession in DMSO for each column for 10 pts • c) Transferred 0.1 μL diluted compound solution to 384 assay plate using Echo, each column containing 2 replicates • d) Added 5 μL enzyme working solution to 384-well assay plate, centrifuge 1000 RPM for 1 min e) Incubated at 25° C. for 15 min • f) Added 5 μL ATP working solution to initiate reaction • g) Incubated at 25° C. for 60 min • h) Added 10 μL ADP Glo reagent, centrifuge 1000 RPM for 1 min • i) Incubated at 25° C. for 60 min • j) Added 20 μL kinase detection reagent, centrifuge 1000 RPM for 1 min • k) Incubated at 25° C. for 60 min • l) Read Luminescence Signal on Envision 2104 plate reader.
# 1.3. Data Analysis—Calculated IC50 and Plot Dose-Response Curve of Compounds:
# Calculated IC50 by fitting % Inhibition values and log of compound concentrations to nonlinear regression (dose response−variable slope) with GraphPad 6.0.
# [formula] • X: log of inhibitor concentration; Y: % Inhibition
# OVCAR-3 = assay: OVCAR3 CTG assay; format: cell-based; conditions: Homo sapiens, OVCAR-3, 144 h; CellTiter-Glo, 6 days incubation
# Description: Example B2: OVCAR3 CTG Assay
# • a) Preparation of complete medium: Added FBS and appropriate additives according to the information sheet provided by the vendor. Mix gently. • b) Checked the cell name and complete medium and passage number marked on the flask. For adherent cell lines, refer to c to k. For suspension cell lines, refer to g to k. • c) Removed and discarded culture medium using a vacuum pump. • d) Briefly rinsed the cell layer with 0.25% (w/v) Trypsin-0.038% (w/v) EDTA solution to remove all traces of serum that contains trypsin inhibitor. • e) Added 3.0 ml of Trypsin-EDTA solution to flask and observed cells under an inverted microscope until cell layer is dispersed. • f) Added 9.0 ml of complete growth medium and aspirated cells by gently pipetting. • g) Transfered the cell suspension to a centrifuge tube and centrifuged at 1000 rpm for 4 minutes. • h) Discarded the supernatant using a vacuum pump. • i) Added appropriate volume of complete medium. Suspended the cell pellet by gently pipetting. • j) Counted the cell numbers with Vi-cell XR and adjusted cells to appropriate density. • k) Added 190 μL of cell suspension to 96-well opaque-walled clear bottom plates according to the planned plate layout and placed the plates in the CO2 incubator overnight.
# 2) Compound Stock Preparation:
# • a) Plate preparation of testing articles:
# The compounds were dissolved in DMSO to prepare 10 mM stock solution. The start working concentration (2 mM) was prepared with DMSO.
# b) Staurosporine Plate Preparation:
# 0.4 mM Staurosporine was prepared in DMSO at working concentration.
# The 20× compound containing medium was prepared according to the plate map. 10 μL of 20× compound containing medium was added into each well of the assay plates. Centrifuged at 1000 rpm for 1 minute. The total dilution was 200-fold.
# 3) Cells were Incubated with the Compounds for 6 Days at 5% CO2, 37° C.
# Assay Measurement for CTG Assay
# 1) Preparation of Reagents
# • a) Thawed the CellTiter-Glo buffer and equilibrated to room temperature prior to use. • b) Equilibrated the lyophilized CellTiter-Glo substrate to room temperature prior to use. • c) Transfered the appropriate volume of CellTiter-Glo buffer into the amber bottle containing CellTiter-Glo substrate to reconstitute the lyophilized enzyme/substrate mixture. This formed the CellTiter-Glo reagent. • d) Mixed by gently vortexing, swirling or by inverting the contents to obtain a homogeneous solution. The CellTiter-Glo substrate went into solution easily in less than one minute.
# • a) Observed the cell morphology under an inverted microscope after corresponding treatment. • b) Equilibrated the plate and its contents to room temperature for approximately 30 minutes. • c) Added 100 μL of CellTiter-Glo reagent to the assay plate by Multidrop Combi instrument. • d) Mixed contents for 10 minutes on an orbital shaker to induce cell lysis. • e) Allowed the plate to incubate at room temperature for 10 minutes to stabilize luminescent signal. • f) Pasted the clear bottom with white back seal and record luminescence with Envision. The settings should be: Luminescence, measurement time 0.1 s.
SMILES,IC50 (Kif18A),IC50 (OVCAR-3)
Cc1cc2nc(n1)N(C)CCCOCC1(C)CCN(CC1)c1cc(S(=O)(=O)NC(C)(C)C)ccc1C(=O)N2 [EX15],10 to 100 nM,100 to 1000 nM
CNS(=O)(=O)c1ccc2c(c1)N1CCC(C)(CC1)COCCCN(C)c1nc(C)cc(n1)NC2=O [EX16],10 to 100 nM,100 to 1000 nM
Cc1cc2nc(n1)NCCCOCC1(C(F)(F)F)CCN(CC1)c1cc(NS(=O)(=O)CCO)ccc1C(=O)N2 [EX17],< 10 nM,< 10 nM
Cc1cc2nc(n1)NCCCCOC1(C)CCN(CC1)c1cc(NS(=O)(=O)CCO)ccc1C(=O)N2 [EX18],10 to 100 nM,100 to 1000 nM
Cc1cc2nc(n1)NCC(C)COCC1(C)CCN(CC1)c1cc(NS(=O)(=O)CCO)ccc1C(=O)N2 (stereo not drawn) [EX19],< 10 nM,< 10 nM
Cc1cc2nc(n1)NC(C)CCOCC1(C)CCN(CC1)c1cc(NS(=O)(=O)CCO)ccc1C(=O)N2 (stereo not drawn) [EX20],10 to 100 nM,10 to 100 nM
CN1CCOCC2(C)CCN(CC2)c2cc(NS(=O)(=O)CCO)ccc2C(=O)Nc2cccc(n2)C1=O [EX21],100 to 1000 nM,100 to 1000 nM
CN1CCCOCC2(C)CCN(CC2)c2cc(NS(=O)(=O)CCO)ccc2C(=O)Nc2cccc(n2)C1=O [EX22],100 to 1000 nM,100 to 1000 nM
Cc1cc2nc(n1)NCCOCCC1(C)CCN(CC1)c1cc(NS(=O)(=O)CCO)ccc1C(=O)N2 [EX23],10 to 100 nM,10 to 100 nM
Cc1cc2nc(n1)NCC(F)COCC1(C)CCN(CC1)c1cc(NS(=O)(=O)CCO)ccc1C(=O)N2 (stereo not drawn) [EX24],< 10 nM,10 to 100 nM
Cc1cc2nc(n1)NCCCOCC1(C)CCN(CC1)c1cc(S(N)(=O)=O)ccc1C(=O)N2 [EX25-A],10 to 100 nM,10 to 100 nM
Cc1cc2nc(n1)NCCCOCC1(C)CCN(CC1)c1cc(S(=O)(=O)NC(C)(C)C)ccc1C(=O)N2 [EX25],10 to 100 nM,< 10 nM
Cc1cc2nc(n1)N(CC(F)(F)F)CCCOCC1(C)CCN(CC1)c1cc(NS(=O)(=O)CCO)ccc1C(=O)N2 [EX26],10 to 100 nM,1000 to 10000 nM
Cc1cc2nc(n1)N(C)CCCOCC1(C(F)(F)F)CCN(CC1)c1cc(NS(=O)(=O)CCO)ccc1C(=O)N2 [EX27],10 to 100 nM,100 to 1000 nM
COC1CNc2nc(C)cc(n2)NC(=O)c2ccc(NS(=O)(=O)CCO)cc2N2CCC(C)(CC2)COC1 (stereo not drawn) [EX31],10 to 100 nM,10 to 100 nM
Cc1cc2nc(n1)N(C)C[C@H](C)COCC1(C)CCN(CC1)c1cc(NS(=O)(=O)CCO)ccc1C(=O)N2 [EX33-A],10 to 100 nM,100 to 1000 nM
Cc1cc2nc(n1)N(C)C[C@@H](C)COCC1(C)CCN(CC1)c1cc(NS(=O)(=O)CCO)ccc1C(=O)N2 [EX33-B],10 to 100 nM,1000 to 10000 nM
Cc1cc2nc(n1)NCCCCCC1(C)CCN(CC1)c1cc(NS(=O)(=O)CCO)ccc1C(=O)N2 [EX34],< 10 nM,< 10 nM
